Experimental data published in PubChem BioAssay (NCI).
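Briefly, cells in 96-well plates were exposed to five compound concentrations for 48 h, and endpoints were estimated by linear interpolation. Definition used: TGI = concentration required for complete inhibition of growth.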

Key:
Assay in all cases: NCI anticancer screen, dose series, 48 h
[1] = test system: DU-145 prostate
[2] = test system: SK-MEL-2 melanoma
[3] = test system: K-562 leukemia
[4] = test system: UACC-257 melanoma
[5] = test system: NCI-H23 lung
[6] = test system: SNB-19 CNS
[7] = test system: U251 CNS
[8] = test system: HCC-2998 colon
[9] = test system: OVCAR-3 ovarian
[10] = test system: OVCAR-8 ovarian
[11] = test system: A498 renal
[12] = test system: SK-OV-3 ovarian

Row | Structure (SMILES) | TGI [1] [µM] | TGI [2] [µM] | TGI [3] [µM] | TGI [4] [µM] | TGI [5] [µM] | TGI [6] [µM] | TGI [7] [µM] | TGI [8] [µM] | TGI [9] [µM] | TGI [10] [µM] | TGI [11] [µM] | TGI [12] [µM]
1 | O=C1c2cccnc2S(=O)(=O)N1c1ccc(Oc2ccccc2)cc1 | > 100 | > 100 | > 100 | > 100 | > 100 | > 100 | > 100 | > 100 | > 100 | > 100 | > 100 | > 100
2 | COc1cc(C(=O)/C=C/c2ccc(OCCSCCCCCCCCCCSCCOc3ccc(/C=C/C(=O)c4cc(OC)c(OC)c(OC)c4)cc3)cc2)cc(OC)c1OC | > 100 | > 100 | > 100 |  | > 100 | > 100 | > 100 | > 100 | > 100 | > 100 | > 100 | 
3 | C=CCc1[nH]c2c(OCc3ccccc3)cc(N(CC=C)C(C)=O)cc2c1C | 27.8 | 26.1 | > 100 | 30.6 | 26.8 | 25.3 | 25.3 | 28.4 | 29.6 | 27.4 | 25 | 31.9
4 | COc1ccc(OC)c(CSc2ccc(OC)c(OC)c2)c1 | > 100 | > 100 | > 100 | > 100 | > 100 | > 100 | > 100 | > 100 | > 100 | > 100 | 99.3 | > 100
5 | Cc1ccc(S(=O)(=O)CN2C(=O)C(c3ccccc3)(c3ccccc3)C23OC(c2ccc(Cl)cc2)=CC3=O)cc1 (stereo not given) | > 10 | > 10 | > 10 | > 10 | > 10 | > 10 | > 10 | > 10 | > 10 | > 10 | > 10 | > 10
6 | C=C1CCCC2[C@](C)(CC3=C(Cl)C(=O)C=C(OC)C3=O)C(C)CC[C@]12C (stereo not given in full) | 15.2 | 13.5 | 13.1 | 13.6 | 13.1 | 13.9 | 11.2 | 23.9 | 11.9 | 9.78 | 16.2 | 46.5
7 | C=CCNC(=S)N=Nc1c(O)n(CN2CCOCC2)c2ccc([N+](=O)[O-])cc12 | > 100 | > 100 | > 100 | > 100 | > 100 | > 100 | > 100 | 90.3 | > 100 | > 100 | 65.6 | > 100
8 | CC(=O)OC(CN1CCN(c2ccccn2)CC1)Cn1sc2nc(C)cc(C)c2c1=O (stereo not given) | 33.9 | 32.2 | 94 | 32 | 43 | > 100 | 32.1 | 34.4 | 50.7 | 73.9 | 32.2 | 35.9
9 | O=C(c1cc2ccccc2[nH]1)N1C2CCC1CN(CCOC(c1ccc(F)cc1)c1ccc(F)cc1)CC2 (stereo not given) | > 100 | > 100 | > 100 | > 100 | > 100 | > 100 | > 100 | > 100 | > 100 | > 100 | > 100 | > 100
10 | CCCCc1ccc(Nc2nc(Cl)c3ncn(COCCOC(C)=O)c3n2)cc1 | 29.7 | 31.5 | 55.5 | 36.4 | 31.4 | 38.7 | 35 | 24.5 | 43.4 | 32.6 | 59.3 | 76.9
11 | NC(CSCc1ccc(I)cc1)C(=O)O (stereo not given) | > 100 | > 100 | > 100 | > 100 | > 100 | > 100 | > 100 | > 100 | > 100 | > 100 | > 100 | > 100
12 | O=c1ccn(CC2(CO)CCCC2)c(=O)[nH]1 | > 100 | > 100 | > 100 | > 100 | > 100 |  | > 100 | > 100 | > 100 | > 100 | > 100 | > 100
13 | CCCCCCCCCCCCCCCCCCNc1ccn(C2OC(COP(=O)(O)OCC3OC(n4cc(C)c(=O)[nH]c4=O)CC3F)C(O)C2O)c(=O)n1 (stereo not given) | 46.2 | 19.4 | 42.5 | 27.8 | 17.9 | 14.1 | 15 | 13.5 | 50.5 | 29.3 | > 60.2 | 18
14 | CCOC(=O)CCC(NC(=O)Cc1ccc(Nc2nc3ccccc3nc2-c2cccs2)cc1)C(=O)OCC (stereo not given) | > 100 | > 100 | > 100 | > 100 | > 100 | > 100 | > 100 | > 100 | > 100 |  | > 100 | > 100
15 | CN(C)CCCC1c2ccccc2Oc2ccc(C(F)(F)F)cc21 (stereo not given) | 31.1 | 28.5 | 18.3 | 26.5 | 36.6 | 31.3 | 23.9 | 4.97 | 29.2 | 31.9 | 25.9 | 30.7
16 | CC1=NN(c2nc(N)nc(CBr)n2)C(C)(C)C1 | 12.1 | 26.2 | > 100 | 25.2 | 29.9 | 36.6 | 16.9 | 30.6 | 13.4 | 18.4 | 25.7 | 38.7
17 | Clc1c(Cl)c(Cl)c2c(nnn2C2CCCO2)c1Cl (stereo not given) | > 100 | 73.3 | 48.7 | > 100 | 49.3 |  | > 100 | > 100 | > 100 | > 100 | 88.7 | > 100
18 | CCOc1ccc(N/C(=C(/C(Cl)=C(/Cl)Nc2ccccc2)[N+](=O)[O-])n2nnc3ccccc32)cc1 | > 100 | 73.7 | > 100 | > 100 | 32.6 | > 100 | 33.6 | > 100 | 80.8 |  | > 100 | > 100
